Test results published in PubChem BioAssay AID743132 (The Scripps Research Institute Molecular Screening Center, 2013).
Calls of active or inactive are those of the source.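 How the source made its calls: active means compounds blocking probe labeling of mouse brain LYPLA1 and LYPLA2 with IC50 at most 1000 nM; inactive means IC50 above 1000 nM.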

What was measured:
Assay in all cases: LYPLA1/2 inhibition with ABHD6 and FAAH off-targets, late-stage follow-up, selectivity assay for LYPLA1/LYPLA2 inhibitor project, cell lysate, mouse brain membrane proteome, fluorescence gel (AID 743132)
[1] = molecular target: Acyl-protein thioesterase 1 (Mus musculus) (UniProt P97823); settings: gel-based ABPP FP-Rh fluorescence, LYPLA1/2
Sequence of Acyl-protein thioesterase 1 (Mus musculus) (P97823 whole entry, looked up): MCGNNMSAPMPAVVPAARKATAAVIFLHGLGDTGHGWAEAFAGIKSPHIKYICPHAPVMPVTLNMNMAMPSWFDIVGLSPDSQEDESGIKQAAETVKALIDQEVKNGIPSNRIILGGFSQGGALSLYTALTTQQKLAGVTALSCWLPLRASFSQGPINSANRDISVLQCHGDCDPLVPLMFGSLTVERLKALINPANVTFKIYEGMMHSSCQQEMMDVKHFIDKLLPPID

[2] = molecular target: Monoacylglycerol lipase ABHD6 (Mus musculus) (UniProt Q8R2Y0); settings: gel-based ABPP FP-Rh fluorescence
Sequence of Monoacylglycerol lipase ABHD6 (Mus musculus) (Q8R2Y0 whole entry, looked up): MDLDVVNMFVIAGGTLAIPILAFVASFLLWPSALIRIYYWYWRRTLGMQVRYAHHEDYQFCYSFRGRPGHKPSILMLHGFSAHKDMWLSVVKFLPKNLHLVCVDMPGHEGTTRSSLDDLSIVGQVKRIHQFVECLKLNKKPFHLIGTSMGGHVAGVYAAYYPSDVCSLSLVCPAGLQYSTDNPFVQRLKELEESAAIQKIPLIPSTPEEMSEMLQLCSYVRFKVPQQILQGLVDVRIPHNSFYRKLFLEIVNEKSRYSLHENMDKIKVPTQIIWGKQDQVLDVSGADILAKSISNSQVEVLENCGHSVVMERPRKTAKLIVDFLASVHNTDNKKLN

FAAH = settings: gel-based ABPP FP-Rh fluorescence

O=C(ON1C(=O)C2CN(C(=O)N3CCOCC3)CCN2C1=O)N1CCC(CCc2ccc(Cl)cc2)CC1 (stereo not drawn)
IC50 [1]: 154 nM
IC50 [2]: 3.15 nM
IC50 (FAAH): inactive
